The record followed here is PubChem BioAssay (NCI).

Test systems include A498 renal; CAKI-1 renal; CCRF-CEM leukemia; HCT-116 colon; HOP-92 NSCLC; K-562 leukemia; OVCAR-4 ovarian; SF-295 CNS; TK-10 renal; UACC-62 melanoma.
What all share (assay): NCI anticancer screen, dose series, 48 h

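48-hour exposure; five concentrations; linearly interpolated endpoints. GI50 = concentration required for 50% inhibition of growth. TGI is the concentration that stops growth completely.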 Some results are limits rather than exact numbers.

For the molecule `CC(=O)N1c2ccccc2NC2=C(C(=O)N(Cc3ccccc3)C2(C)C)C1c1ccco1` (stereo not given), the GI50 in the experiment on A498 renal is 0.727 µM; with CAKI-1 renal, 3.41 µM; in the experiment on CCRF-CEM leukemia it was 0.258 µM; with HCT-116 colon it was 0.692 µM; in the experiment with HOP-92 NSCLC, 1.02 µM; with K-562 leukemia, 0.166 µM. For the same molecule, the GI50 is above 6.37 µM in the experiment with OVCAR-4 ovarian, 0.766 µM in the experiment with SF-295 CNS, 6.14 µM in the experiment with TK-10 renal and 0.373 µM in the experiment on UACC-62 melanoma. Moreover, the TGI in the experiment on A498 renal was above 7.06 µM; in the experiment with CAKI-1 renal, above 25 µM; in the experiment on CCRF-CEM leukemia, above 25 µM; in the experiment on HCT-116 colon, above 25 µM; in the experiment with HOP-92 NSCLC, above 25 µM; in the experiment on K-562 leukemia, above 25 µM. Also, the TGI in the experiment with OVCAR-4 ovarian was above 25 µM; with SF-295 CNS, above 6.83 µM; in the experiment with TK-10 renal it was above 25 µM; in the experiment on UACC-62 melanoma, above 25 µM.
Turning to `Fc1ccc(-c2ncn(C3CCNCC3)c2-c2ccnc(Oc3ccc(F)c(F)c3)n2)cc1`, the GI50 in the experiment with A498 renal is 10.8 µM; with CAKI-1 renal, 10.6 µM; in the experiment with CCRF-CEM leukemia, above 14.9 µM; with HCT-116 colon, 4.09 µM; in the experiment with HOP-92 NSCLC, 3.28 µM; in the experiment with K-562 leukemia, 7.56 µM. For the same molecule, the GI50 was 5.91 µM in the experiment with OVCAR-4 ovarian, 7.15 µM in the experiment with SF-295 CNS, 5.09 µM in the experiment with TK-10 renal and 4.99 µM in the experiment with UACC-62 melanoma. Also, the TGI in the experiment on A498 renal was above 25 µM; in the experiment with CAKI-1 renal, above 20.6 µM; in the experiment on CCRF-CEM leukemia, 24.2 µM; in the experiment with HCT-116 colon, 7.56 µM; in the experiment on HOP-92 NSCLC it was 15.6 µM; with K-562 leukemia, above 19.9 µM. Besides, the TGI with OVCAR-4 ovarian is 18.3 µM; in the experiment with SF-295 CNS, above 17.2 µM; in the experiment on TK-10 renal it was 11.1 µM; with UACC-62 melanoma, 10.3 µM.
